Laboratory results as given in PMC11042424, “Development of a First-in-Class RIPK1 Degrader to Enhance Antitumor Immunity” (Research Square, 2024).

What was measured:
B16F10 cells = assay: TNFα-mediated apoptosis in B16F10 cells; type: cell-based, mouse; conditions: 1 μM, TNFα 100 ng/mL, 72 hours
From the text: Figure 3 LD4172 sensitizes B16F10 cells to TNFα-mediated apoptosis. A, Representative flow cytometry dot plots of apoptosis. In all four plots, viable cells are seen in the left lower quadrant (FITC-/PI-), early apoptotic cells in the right lower quadrant (FITC+/PI-), and late apoptotic cells in the right upper quadrant (FITC+/PI+). B, Representative images of PI (red) and caspase 3/7 (Cas3/7+, green) staining of B16F10 cells. Cell death assessed by PI uptake using Cytation 5 imager. C, Western blots for the expression of cleaved caspase3, cleaved caspase7, and cleaved PARP in B16F10 cells. D, Quantification of extracellular ATP level. Western blots for the expression of HMGB1 and calreticulin in B16F10 cells. E, Immunofluorescence staining of HMGB1 in B16F10 cells. B16F10 cells were treated in the presence or absence of TNFα (100 ng/mL), Z-VAD-FMK (25 μM), LD4172 (1 μM), and/or T2I (1 μM) as indicated for 72 hours. Data are representative of three independent experiments. Error bars represent SD.
Apoptosis quantification was conducted utilizing a FITC-conjugated Annexin V/PI assay kit (556547, BD Biosciences) and analyzed through flow cytometry. Briefly, 2×10^5 of B16F10 cells were seeded onto six-well plates and treated as specified for 72 hours at 37°C. Treated and untreated cells were harvested, washed with PBS, and resuspended in 100 μl of binding buffer. […]

B16F10 tumors = assay: B16F10 syngeneic tumor model with anti-PD1; type: in vivo; conditions: B16F10 tumors; 20 mg/kg i.p. daily plus anti-PD1 100 μg i.p. every three days
Experimental: Figure 4 LD4172 synergizes with Anti-PD1 to inhibit tumor growth. A, Plasma concentrations of LD4172 in C57BL/6J mice administered 1 mg/kg intravenously (i.v.) or 10 mg/kg intraperitoneally (i.p.) (n=4). B, Representative immunoblots of RIPK1 in different tissues of C57BL/6J mice treated with LD4172 (n=3–4). C, Densitometric analysis of RIPK1 protein levels in different tissues (n=3 or 4). D, Representative immunoblots of RIPK1 levels of B16F10 cells transduced with gRNA specific for RIPK1 or non-targetable control (sgNC). E, B16F10-RIPK1-KO tumors sensitized to anti-PD1 treatment: 3×10^5 B16F10 cells transduced with gRNA specific for RIPK1 or non-targetable control (sgNC) were inoculated into C57BL/6J mice. After seven days, mice with measurable tumors (~100 mm3) were randomly treated with or without anti-PD1 in vivo (100 μg per dose, i.p., every three days, n=8). F, Tumor growth curve of mice with B16F10 tumors treated with LD4172 and/or anti-PD1 (n=8). C57B6/J mice were subcutaneously inoculated with 3×10^5 B16F10 tumor cells. After seven days (tumor size ~ 100 mm3), mice were treated every three days with anti- PD1 (100 μg per dose, i.p.), daily with LD4172 (20 mg/kg, i.p.), a combination of LD4172 and anti-PD1 (same dose as their individual doses), or their corresponding vehicle control. G, Kaplan-Meier survival curve for all experimental groups. H, Final tumor weight (g) from F after 22d of treatment (n=8). I, Representative images of B16F10 tumors collected at the end of treatment. J, Mouse body weight (n=8). K, Tumor growth curve of mice with B16F10 tumors treated with T2I and/or anti-PD1 (n=8). The experimental conditions and treatment regimens were the same as F except using the RIPK1 kinase inhibitor T2I (20 mg/kg, i.p.) to replace LD4172. Representative data from at least three independent experiments are shown. Data are expressed as the mean ± SEM. * p<0.05; ** p<0.01; *** p<0.001, **** p<0.0001, respectively. ns, indicates no statistical significance.
To establish a syngeneic mouse model, 3× 10^5 B16F10 cells resuspended in PBS were mixed 1:1 by volume with Matrigel (354262, Corning) and subcutaneously injected into the right flank of seven-week-old wild-type female C57BL/6J mice on day 0. Treatments were started on day 7 when the tumor volume reached approximately 100 mm^3. Antibodies were administered in 100μL volumes and injected intraperitoneally every three days for the following: anti-PD1 (100 μg, BE0146, BioXcell) and anti-CD8 (500 μg, BE0004, BioXcell). The RIPK1 degrader LD4172 and RIPK1 kinase inhibitor T2I were delivered in 200 μL of vehicle solution (30% PEG400, 5% Tween-80, 5% DMSO) once daily (20 mg/kg, i.p. injection). […] Tumors were measured every three days beginning on day 7 after the challenge until death. […]

## CCn1cc(-c2ccc3c(c2)CCN3C(=O)Cc2cccc(OC(F)(F)F)c2)c2c(N)ncnc21 [T2I, reference compound]
B16F10 cells
  cell death / apoptosis in combination with TNFα: did not trigger TNFα-mediated apoptosis
B16F10 tumors
  tumor response in combination with anti-PD1: failed to sensitize B16F10 tumors to anti-PD1 treatment
